From patent publication US9420793B2, “Antiparasitic compounds” (Avista Pharma Solutions, priority 2015, dated 2016)

What was measured:
[1] = tested on: Dirofilaria immitis microfilariae; assay: Dirofilaria immitis microfilariae motility assay; conditions: 72 h, read-out: concentration at which active, microfilariae motility
Aedes aegypti = assay: In vitro evaluation of ingestion activity against mosquitoes; conditions: at 20 hours, compound in bovine blood, read-out: concentration at which active, mosquito ingestion
Experimental: In Vitro Evaluation of Ingestion Activity Against Mosquitoes (Aedes aegypti)
A solution of test compounds is added to bovine blood contained in a feeding chamber to reach the desired final concentration. Blood spiked with DMSO is prepared to serve as control. Adult female mosquitoes are introduced at the bottom of the chamber and allowed to feed on blood mixtures containing DMSO or test compounds for 30 minutes. Fully engorged mosquitoes are sorted into clean chambers after the blood meal and monitored for survival over 3 days. Replicates containing 10 mosquitoes are performed with each test compound concentration and results calculated as % mortality at specific time points.

Structure (SMILES)	minimal effective concentration [1] [µM]	minimal effective concentration (Aedes aegypti) [µg/mL]
CNC(=O)N1CC2(C1)OCc1cc(C3=NSC(c4cc(Cl)c(F)c(Cl)c4)(C(F)(F)F)C3)ccc12 (stereo not drawn) [Compound 41, 6-[5-(3,5-dichloro-4-fluoro-phenyl)-5-(trifluoromethyl)-4H-isothiazol-3-yl]-N-methyl-spiro[1H-isobenzofuran-3,3′-azetidine]-1′-carboxamide]	< 10	< 1
CCCCCC(=O)N1CC2(C1)OCc1cc(C3=NSC(c4cc(Cl)c(F)c(Cl)c4)(C(F)(F)F)C3)ccc12 (stereo not drawn) [Compound 36, 1-[6-[5-(3,5-dichloro-4-fluoro-phenyl)-5-(trifluoromethyl)-4H-isothiazol-3-yl]spiro[1H-isobenzofuran-3,3′-azetidine]-1′-yl]hexan-1-one]	< 10	–
CCOCC(=O)N1CC2(C1)OCc1cc(C3=NSC(c4cc(Cl)c(F)c(Cl)c4)(C(F)(F)F)C3)ccc12 (stereo not drawn) [Compound 24, 1-[6-[5-(3,5-dichloro-4-fluoro-phenyl)-5-(trifluoromethyl)-4H-isothiazol-3-yl]spiro[1H-isobenzofuran-3,3′-azetidine]-1′-yl]-2-ethoxy-ethanone]	< 10	–
COCC(=O)N1CC2(C1)OCc1cc(C3=NSC(c4cc(Cl)c(F)c(Cl)c4)(C(F)(F)F)C3)ccc12 (stereo not drawn) [Compound 22, 1-[6-[5-(3,5-dichloro-4-fluoro-phenyl)-5-(trifluoromethyl)-4H-isothiazol-3-yl]spiro[1H-isobenzofuran-3,3′-azetidine]-1′-yl]-2-methoxy-ethanone]	< 10	–
O=C(c1ccc(N2CCOCC2)cc1)N1CC2(C1)OCc1cc(C3=NSC(c4cc(Cl)c(F)c(Cl)c4)(C(F)(F)F)C3)ccc12 (stereo not drawn) [Compound 13, [6-[5-(3,5-dichloro-4-fluoro-phenyl)-5-(trifluoromethyl)-4H-isothiazol-3-yl]spiro[1H-isobenzofuran-3,3′-azetidine]-1′-yl]-(4-morpholinophenyl)methanone]	< 10	–
O=C(C1CCOCC1)N1CC2(C1)OCc1cc(C3=NSC(c4cc(Cl)c(F)c(Cl)c4)(C(F)(F)F)C3)ccc12 (stereo not drawn) [Compound 19, [6-[5-(3,5-dichloro-4-fluoro-phenyl)-5-(trifluoromethyl)-4H-isothiazol-3-yl]spiro[1H-isobenzofuran-3,3′-azetidine]-1′-yl]-tetrahydropyran-4-yl-methanone]	< 10	< 1
CCNC(=O)N1CC2(C1)OCc1cc(C3=NSC(c4cc(Cl)c(F)c(Cl)c4)(C(F)(F)F)C3)ccc12 (stereo not drawn) [Compound 16, 6-[5-(3,5-dichloro-4-fluoro-phenyl)-5-(trifluoromethyl)-4H-isothiazol-3-yl]-N-ethyl-spiro[1H-isobenzofuran-3,3′-azetidine]-1′-carboxamide]	< 10	< 1
CC(C)C(=O)N1CC2(C1)OCc1cc(C3=NSC(c4cc(Cl)c(F)c(Cl)c4)(C(F)(F)F)C3)ccc12 (stereo not drawn) [Compound 25, 1-[6-[5-(3,5-dichloro-4-fluoro-phenyl)-5-(trifluoromethyl)-4H-isothiazol-3-yl]spiro[1H-isobenzofuran-3,3′-azetidine]-1′-yl]-2-methyl-propan-1-one]	< 10	–
CC(C)OCC(=O)N1CC2(C1)OCc1cc(C3=NSC(c4cc(Cl)c(F)c(Cl)c4)(C(F)(F)F)C3)ccc12 (stereo not drawn) [Compound 23, 1-[6-[5-(3,5-dichloro-4-fluoro-phenyl)-5-(trifluoromethyl)-4H-isothiazol-3-yl]spiro[1H-isobenzofuran-3,3′-azetidine]-1′-yl]-2-isopropoxy-ethanone]	< 10	–
CCC(=O)N1CC2(C1)OCc1cc(C3=NSC(c4cc(Cl)c(F)c(Cl)c4)(C(F)(F)F)C3)ccc12 (stereo not drawn) [Compound 26, 1-[6-[5-(3,5-dichloro-4-fluoro-phenyl)-5-(trifluoromethyl)-4H-isothiazol-3-yl]spiro[1H-isobenzofuran-3,3′-azetidine]-1′-yl]propan-1-one]	< 10	–
CC(=O)N1CC2(C1)OCc1cc(C3=NSC(c4cc(Cl)c(F)c(Cl)c4)(C(F)(F)F)C3)ccc12 (stereo not drawn) [Compound 27, 1-[6-[5-(3,5-dichloro-4-fluoro-phenyl)-5-(trifluoromethyl)-4H-isothiazol-3-yl]spiro[1H-isobenzofuran-3,3′-azetidine]-1′-yl]ethanone]	< 10	–
CCCCN1CC2(C1)OCc1cc(C3=NSC(c4cc(Cl)c(F)c(Cl)c4)(C(F)(F)F)C3)ccc12 (stereo not drawn) [Compound 20, 1′-butyl-6-[5-(3,5-dichloro-4-fluoro-phenyl)-5-(trifluoromethyl)-4H-isothiazol-3-yl]spiro[1H-isobenzofuran-3,3′-azetidine]]	< 10	< 1
N#CCC(=O)N1CC2(C1)OCc1cc(C3=NSC(c4cc(Cl)c(F)c(Cl)c4)(C(F)(F)F)C3)ccc12 (stereo not drawn) [Compound 29, 3-[6-[5-(3,5-dichloro-4-fluoro-phenyl)-5-(trifluoromethyl)-4H-isothiazol-3-yl]spiro[1H-isobenzofuran-3,3′-azetidine]-1′-yl]-3-oxo-propanenitrile]	< 10	< 1
O=C(CCC(F)(F)F)N1CC2(C1)OCc1cc(C3=NSC(c4cc(Cl)c(F)c(Cl)c4)(C(F)(F)F)C3)ccc12 (stereo not drawn) [Compound 10, 1-[6-[5-(3,5-dichloro-4-fluoro-phenyl)-5-(trifluoromethyl)-4H-isothiazol-3-yl]spiro[1H-isobenzofuran-3,3′-azetidine]-1′-yl]-4,4,4-trifluoro-butan-1-one]	–	< 1
CC(C)(C)CCN1CC2(C1)OCc1cc(C3=NSC(c4cc(Cl)c(F)c(Cl)c4)(C(F)(F)F)C3)ccc12 (stereo not drawn) [Compound 21, 6-[5-(3,5-dichloro-4-fluoro-phenyl)-5-(trifluoromethyl)-4H-isothiazol-3-yl]-1′-(3,3-dimethylbutyl)spiro[1H-isobenzofuran-3,3′-azetidine]]	< 10	–
Fc1c(Cl)cc(C2(C(F)(F)F)CC(c3ccc4c(c3)COC43CN(c4ncccn4)C3)=NS2)cc1Cl (stereo not drawn) [Compound 40, 6-[5-(3,5-dichloro-4-fluoro-phenyl)-5-(trifluoromethyl)-4H-isothiazol-3-yl]-1′-pyrimidin-2-yl-spiro[1H-isobenzofuran-3,3′-azetidine]]	< 10	–
O=C(N1CC2(C1)OCc1cc(C3=NSC(c4cc(Cl)c(F)c(Cl)c4)(C(F)(F)F)C3)ccc12)C(F)(F)C(F)(F)F (stereo not drawn) [Compound 30, 1-[6-[5-(3,5-dichloro-4-fluoro-phenyl)-5-(trifluoromethyl)-4H-isothiazol-3-yl]spiro[1H-isobenzofuran-3,3′-azetidine]-1′-yl]-2,2,3,3,3-pentafluoro-propan-1-one]	< 10	< 1
CC(F)(F)C(=O)N1CC2(C1)OCc1cc(C3=NSC(c4cc(Cl)c(F)c(Cl)c4)(C(F)(F)F)C3)ccc12 (stereo not drawn) [Compound 31, 1-[6-[5-(3,5-dichloro-4-fluoro-phenyl)-5-(trifluoromethyl)-4H-isothiazol-3-yl]spiro[1H-isobenzofuran-3,3′-azetidine]-1′-yl]-2,2-difluoro-propan-1-one]	< 10	–
